{"source": "patent US20240294499A1", "about": "“TARGETED PROTEIN DEGRADATION USING BIFUNCTIONAL COMPOUNDS THAT BIND UBIQUITIN LIGASE AND TARGET MCL-1 PROTEIN” (Captor Therapeutics S.A., priority 2021, published 2024)", "key": {"[1]": {"test_system": "iPSC-derived cardiomyocytes (iPSC-CMs)", "test": "caspase 3/7 activity in iPSC-derived cardiomyocytes", "type": "cell-based", "settings": "100 μM, FIG. 5"}, "[2]": {"test_system": "hiPSC-CM (iCELL Cardiomyocytes)", "test": "Cardiac safety: hiPSC-CM cell viability assay (CTG)", "type": "cell-based, human", "settings": "viability, CTG assay, treatment until day 14", "source_text": "The effect of various compounds of the invention and a reference compounds AZD5991 and MIK665 on cardiac safety was investigated by the evaluation of viability with CTG assay (Promega; cat #G7572) in iCELL™ Cardiomyocytes from FUJIFILM Cellular Dynamics (Catalog number: 11713).\nCells were thawed, counted using an automated cell counter (TC20, Bio-Rad) and seeded in 96 well plates (Greiner-BioOne; 655098) previously coated with 0.1% gelatin (Sigma-Aldrich; G1890) using Plating Medium (#M1001) following the instructions of the iCELL cardiomyocytes User Guide. Forty ml of Plating Medium was used to equally distribute the cells in four 96 well plates. Cells were then placed in the incubator at 37° C., 5% CO2 and left undisturbed for 48 hours. Compounds were serially diluted in DMSO and then further diluted to final assay concentration using maintenance medium (#M1003). Final DMSO concentration was 0.5%. Forty eight hours after plating, non-adherent cells and debris were washed as described in the User Guide. Plating medium was then replaced with maintenance medium containing diluted compounds or DMSO (as control). Medium was then changed every 2 days with fresh medium containing compounds or DMSO until the end of the treatment. On day 14, only medium without compounds was used immediately before the CTG assay. Luminescence signal was measured using a CLARIOstar Plus Multi-Mode Microplate Reader (574-590 nm)."}, "iCELL Cardiomyocytes": {"test_system": "iCELL Cardiomyocytes", "test": "Cardiac safety: caspase 3 and 7 activation (Caspase-Glo 3/7) in iCELL Cardiomyocytes", "type": "cell-based", "settings": "1.2 uM, 24 hours incubation, vs DMSO", "source_text": "The effect of various compounds of the invention and a reference compound AZD5991 on cardiac safety was investigated by the evaluation of caspase 3 and 7 activation using Caspase-Glo 3/7 Assay (Promega; G8092) in iCELL™ Cardiomyocytes from FUJIFILM Cellular Dynamics (Catalog number: 11713). In the Caspase-Glo® 3/7 Assay, the luminescence (measured as Relative Luciferase Units, RLU) is proportional to the amount of caspase activity present in each sample.\nThe assay is initiated by thawing and seeding iCell® Cardiomyocytes as specified in the User Guide. After 48 hours, the cells are washed to remove unattached cells and debris and immediately treated with compounds or DMSO diluted in the maintenance medium (FCDI; cat: M1003). Compound concentrations used in this assay: 7 points 1/3 dilution curve starting at 100 uM. After 24 hours of incubation with compounds, caspase activity is measured by the addition of the Caspase-Glo® 3/7 Reagent followed by the luminescence measurement.\nThe analysis of the results is performed by calculation of the fold change in caspase 3/7 activity at a given compound concentration. Fold change is calculated with the formula: […]\nwhere: • RLU Xi is the Relative Luciferase Units of sample I; • RLU BG is the Background Relative Luciferase Units; • RLU C is the Relative Luciferase Units of Control (DMSO).\nThe experiments were performed in technical duplicates."}}, "data": [{"compound": "Cc1c2c(nn1C)CSCc1cc(n(C)n1)CSc1cc(c3ccccc3c1)OCCCc1c(C(=O)O)n(C)c3c-2c(Cl)ccc13", "note": "[AZD-5991]", "values": [{"measurement": "cell death in iPSC-CMs (caspase 3/7 assay, concentration point not displayed)", "setting": "[1]", "value": "excessive cell death"}]}, {"compound": "Cc1c2c(nn1C)CSCc1cc(n(C)n1)CSc1cc(c3ccccc3c1)OCCCc1c(C(=O)O)n(C)c3c-2c(Cl)ccc13", "note": "[AZD5991, reference compound]", "values": [{"measurement": "IC50", "setting": "[2]; Homo sapiens, Cardiomyocyte, 336 h, read-out: Average pIC50 by molecule hiPSC-CM (converted)", "value": 631, "unit": "nM"}, {"measurement": "Fold change at 1.2 uM (caspase 3/7 activity in cardiomyocytes)", "setting": "iCELL Cardiomyocytes", "value": "2.9 ± 0.5"}]}, {"compound": "MIK665 [reference compound]", "values": [{"measurement": "Average pIC50 by molecule hiPSC-CM", "setting": "[2]", "value": 6.9}]}]}
